Data: patent publication US20230085307A1, “PYRIDAZINONE COMPOUND AND HERBICIDE” (NISSAN CHEMICAL CORPORATION, priority 2019, published 2023)

Assays:
[1] = test system: velvetleaf; experiment: Test Example 5: herbicidal effect by foliage application, plastic box (Table 20, symbol M); format: in vivo, velvetleaf (Abutilon theophrasti); settings: foliage application, 320 g/ha, 3 weeks after application
In short: (§1)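 Plants were sown into sterilized diluvial soil under about 1.5 cm cover and kept in a greenhouse at 25° C. to 30° C. Fourteen days on, foliage received an even spray of the diluted emulsion. Herbicidal or crop effect was judged three weeks afterwards.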

[2] = test system: Chinese sprangletop; experiment: Test Example 3: herbicidal effect by foliage application, Wagner pot (Table 18, symbol D); format: in vivo, chinese sprangletop (Leptochloa chinensis); settings: 320 g/ha
In short: (§2)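 Plants were sown in alluvial soil held under 0.1–0.5 cm standing water and grown 14 days in a greenhouse at 25–30 °C. An emulsifiable formulation, water-diluted to the set dose, was then sprayed onto the foliage, and effects were scored three weeks later using previously defined criteria.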

[3] = test system: barnyard grass; experiment: Test Example 3: herbicidal effect by foliage application, Wagner pot (Table 18, symbol H); format: in vivo, barnyard grass (Echinochloa crus-galli); settings: 320 g/ha
In short: as §2

[4] = test system: blackgrass; experiment: Test Example 4: herbicidal effect by soil treatment (Table 19, symbol J); format: in vivo, blackgrass (Alopecurus myosuroides); settings: AAH 320 g/ha
In short: (§3)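 In this soil treatment, the formulated compound reached the seeds only through the soil: seeds were buried about 1.5 cm deep in sterilized diluvial soil, then the diluted emulsion was sprayed over the surface. After three weeks at 25° C. to 30° C. in a greenhouse, effects were graded on criteria from an earlier test.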

[5] = test system: southern crabgrass; experiment: Test Example 4: herbicidal effect by soil treatment (Table 19, symbol F); format: in vivo, southern crabgrass (Digitaria ciliaris); settings: AAH 320 g/ha
In short: as §3

[6] = test system: rice flat sedge; experiment: Test Example 3: herbicidal effect by foliage application, Wagner pot (Table 18, symbol E); format: in vivo, rice flat sedge (Cyperus iria); settings: 320 g/ha
In short: as §2

[7] = test system: Italian ryegrass; experiment: Test Example 4: herbicidal effect by soil treatment (Table 19, symbol K); format: in vivo, Italian ryegrass (Lolium multiflorum); settings: AAH 320 g/ha
In short: as §3

[8] = test system: chickweed; experiment: Test Example 4: herbicidal effect by soil treatment (Table 19, symbol P); format: in vivo, common chickweed (Stellaria media); settings: AAH 320 g/ha
In short: as §3

[9] = test system: lambsquarters; experiment: Test Example 5: herbicidal effect by foliage application, plastic box (Table 20, symbol O); format: in vivo, lambsquarters (Chenopodium album); settings: foliage application, 320 g/ha, 3 weeks after application
In short: as §1

[10] = test system: redroot pigweed; experiment: Test Example 4: herbicidal effect by soil treatment (Table 19, symbol N); format: in vivo, redroot pigweed (Amaranthus retroflexus); settings: AAH 320 g/ha
In short: as §3

[11] = test system: barnyard grass; experiment: Test Example 4: herbicidal effect by soil treatment (Table 19, symbol H); format: in vivo, barnyard grass (Echinochloa crus-galli); settings: AAH 320 g/ha
In short: as §3

[12] = test system: Italian ryegrass; experiment: Test Example 5: herbicidal effect by foliage application, plastic box (Table 20, symbol K); format: in vivo, Italian ryegrass (Lolium multiflorum); settings: foliage application, 320 g/ha, 3 weeks after application
In short: as §1

[13] = test system: persian speedwell; experiment: Test Example 5: herbicidal effect by foliage application, plastic box (Table 20, symbol R); format: in vivo, Persian speedwell (Veronica persica); settings: foliage application, 320 g/ha, 3 weeks after application
In short: as §1

[14] = test system: persian speedwell; experiment: Test Example 4: herbicidal effect by soil treatment (Table 19, symbol R); format: in vivo, Persian speedwell (Veronica persica); settings: AAH 320 g/ha
In short: as §3

[15] = test system: lambsquarters; experiment: Test Example 4: herbicidal effect by soil treatment (Table 19, symbol O); format: in vivo, lambsquarters (Chenopodium album); settings: AAH 320 g/ha
In short: as §3

[16] = test system: green foxtail; experiment: Test Example 5: herbicidal effect by foliage application, plastic box (Table 20, symbol G); format: in vivo, green foxtail (Setaria viridis); settings: foliage application, 320 g/ha, 3 weeks after application
In short: as §1

[17] = test system: green foxtail; experiment: Test Example 4: herbicidal effect by soil treatment (Table 19, symbol G); format: in vivo, green foxtail (Setaria viridis); settings: AAH 320 g/ha
In short: as §3

[18] = test system: windgrass; experiment: Test Example 4: herbicidal effect by soil treatment (Table 19, symbol L); format: in vivo, windgrass (Apera spica-venti); settings: AAH 320 g/ha
In short: as §3

[19] = test system: wild oat; experiment: Test Example 4: herbicidal effect by soil treatment (Table 19, symbol I); format: in vivo, wild oat (Avena fatua); settings: AAH 320 g/ha
In short: as §3

[20] = test system: southern crabgrass; experiment: Test Example 5: herbicidal effect by foliage application, plastic box (Table 20, symbol F); format: in vivo, southern crabgrass (Digitaria ciliaris); settings: foliage application, 320 g/ha, 3 weeks after application
In short: as §1

[21] = test system: false cleavers; experiment: Test Example 4: herbicidal effect by soil treatment (Table 19, symbol Q); format: in vivo, false cleavers (Galium spurium); settings: AAH 320 g/ha
In short: as §3

[22] = test system: blackgrass; experiment: Test Example 5: herbicidal effect by foliage application, plastic box (Table 20, symbol J); format: in vivo, blackgrass (Alopecurus myosuroides); settings: foliage application, 320 g/ha, 3 weeks after application
In short: as §1

[23] = test system: velvetleaf; experiment: Test Example 4: herbicidal effect by soil treatment (Table 19, symbol M); format: in vivo, velvetleaf (Abutilon theophrasti); settings: AAH 320 g/ha
In short: as §3

[24] = test system: barnyard grass; experiment: Test Example 5: herbicidal effect by foliage application, plastic box (Table 20, symbol H); format: in vivo, barnyard grass (Echinochloa crus-galli); settings: foliage application, 320 g/ha, 3 weeks after application
In short: as §1

[25] = test system: wild oat; experiment: Test Example 5: herbicidal effect by foliage application, plastic box (Table 20, symbol I); format: in vivo, wild oat (Avena fatua); settings: foliage application, 320 g/ha, 3 weeks after application
In short: as §1

Q: Which “effect on velvetleaf (M)” value [1] does the source give for `COCCOCc1ccc(-c2sc3ccccc3c2-c2c(O)c(C)nn(C)c2=O)cc1` [1-255] here?
A: The value was 5 (Herbicidal rate of 90% or more (almost completely withered)).

Q: And the “herbicidal effect on D (Chinese sprangletop), rating 0-5” value [2]?
A: Its value is 3 (Herbicidal rate of 40% or more and less than 70%).

Q: What about the “herbicidal effect on H (barnyard grass), rating 0-5” value [3] of the same compound?
A: The value was 5 (Herbicidal rate of 90% or more (almost completely withered)).

Q: And the “J: blackgrass, herbicidal effect rating” value [4]?
A: Its value is 2 (Herbicidal rate of 20% or more and less than 40%).

Q: What about the “F: southern crabgrass, herbicidal effect rating” value [5] of the same compound?
A: Its value is 3 (Herbicidal rate of 40% or more and less than 70%).

Q: And the “herbicidal effect on E (rice flat sedge), rating 0-5” value [6]?
A: The value was 5 (Herbicidal rate of 90% or more (almost completely withered)).

Q: What about the “K: Italian ryegrass, herbicidal effect rating” value [7] of the same compound?
A: The value was 4 (Herbicidal rate of 70% or more and less than 90%).

Q: And the “P: chickweed, herbicidal effect rating” value [8]?
A: Its value is 4 (Herbicidal rate of 70% or more and less than 90%).

Q: What about the “effect on lambsquarters (O)” value [9] of the same compound?
A: Its value is 5 (Herbicidal rate of 90% or more (almost completely withered)).

Q: What about the “N: redroot pigweed, herbicidal effect rating” value [10] of the same compound?
A: Its value is 5 (Herbicidal rate of 90% or more (almost completely withered)).

Q: And the “H: barnyard grass, herbicidal effect rating” value [11]?
A: Its value is 5 (Herbicidal rate of 90% or more (almost completely withered)).

Q: What about the “effect on Italian ryegrass (K)” value [12] of the same compound?
A: Its value is 5 (Herbicidal rate of 90% or more (almost completely withered)).

Q: And the “effect on persian speedwell (R)” value [13]?
A: The value was 5 (Herbicidal rate of 90% or more (almost completely withered)).

Q: What about the “R: persian speedwell, herbicidal effect rating” value [14] of the same compound?
A: The value was 5 (Herbicidal rate of 90% or more (almost completely withered)).

Q: And the “O: lambsquarters, herbicidal effect rating” value [15]?
A: Its value is 5 (Herbicidal rate of 90% or more (almost completely withered)).

Q: And the “effect on green foxtail (G)” value [16]?
A: The value was 5 (Herbicidal rate of 90% or more (almost completely withered)).

Q: What about the “G: green foxtail, herbicidal effect rating” value [17] of the same compound?
A: The value was 4 (Herbicidal rate of 70% or more and less than 90%).

Q: And the “L: windgrass, herbicidal effect rating” value [18]?
A: Its value is 0 (Herbicidal rate of 5% or less (almost no effect)).

Q: And the “I: wild oat, herbicidal effect rating” value [19]?
A: The value was 0 (Herbicidal rate of 5% or less (almost no effect)).

Q: And the “effect on southern crabgrass (F)” value [20]?
A: Its value is 4 (Herbicidal rate of 70% or more and less than 90%).

Q: And the “Q: false cleavers, herbicidal effect rating” value [21]?
A: The value was 0 (Herbicidal rate of 5% or less (almost no effect)).

Q: And the “effect on blackgrass (J)” value [22]?
A: The value was 4 (Herbicidal rate of 70% or more and less than 90%).

Q: And the “M: velvetleaf, herbicidal effect rating” value [23]?
A: Its value is 4 (Herbicidal rate of 70% or more and less than 90%).

Q: And the “effect on barnyard grass (H)” value [24]?
A: Its value is 5 (Herbicidal rate of 90% or more (almost completely withered)).

Q: And the “effect on wild oat (I)” value [25]?
A: Its value is 0 (Herbicidal rate of 5% or less (almost no effect)).
